Results on 5 compounds are retold here after patent publication US8044054B2, “Stereoisomerically enriched 3-aminocarbonyl bicycloheptene pyrimidinediamine compounds and their uses” (Rigel Pharmaceuticals, Inc., priority 2004, dated 2011).

The test system of data set [1] is variety of different tumor cell lines. The data set can be described thus: In vitro antiproliferation assays, summary over the tumor cell lines tested. It counts as cell-based. Conditions: for IC50's against tumor cell lines, tested as isolated stereoisomers: general range over the cell lines. The source says: The cis racemate of structural formula (IIa) can be referred to as the 2-exo-3-exo racemate, and includes the (1R,2R,3S,4S) and (1S,2S,3R,4R) diastereomers of structural formulae (Ia) and (Ib), respectively. The cis racemate of structural formula (IIb) can be referred to as the 2-endo-3-endo racemate, and includes the (1R,2S,3R,4S) and (1S,2R,3S,4R) diastereomers of structural formulae (Ic) and (Id), respectively. […] Moreover, it has been discovered that the (1R,2R,3S,4S) diastereomer of racemate r1 is largely responsible for the potency of the racemate r1.

In data set [2] the test system is THP-1 (monocyte acute monocytic leukemia). Briefly: In vitro antiproliferation assay, THP-1. It counts as cell-based.
The test system of another data set is U2OS (bone osteosarcoma). Briefly: In vitro antiproliferation assay, U2OS. The class given is cell-based. The conditions noted are these: U20S.
The target of another data set is T1, Aurora kinase-B (Homo sapiens, UniProt Q96GD4).
T1 construct: endogenous in cells; host or cells: A549 cells
T1 sequence (Q96GD4 whole entry): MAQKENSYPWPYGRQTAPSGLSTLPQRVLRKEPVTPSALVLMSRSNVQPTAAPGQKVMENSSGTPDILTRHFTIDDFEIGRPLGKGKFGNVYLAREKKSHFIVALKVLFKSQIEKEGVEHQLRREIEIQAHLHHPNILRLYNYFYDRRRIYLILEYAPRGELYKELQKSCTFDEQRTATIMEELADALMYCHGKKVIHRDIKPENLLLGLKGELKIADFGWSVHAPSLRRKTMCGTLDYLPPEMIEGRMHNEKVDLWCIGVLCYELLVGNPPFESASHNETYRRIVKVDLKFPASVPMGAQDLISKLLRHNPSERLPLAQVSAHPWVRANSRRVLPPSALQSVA
The data set can be described thus: Functional cellular assay of Aurora kinase-B, phosphorylation of histone H3 in A549 cells. It counts as cell-based. As for the experimental part: Compounds 60a and 60b were tested for their ability to inhibit Aurora kinase-B in a functional cellular assay involving phosphorylation of its substrate, histone H3. For the assay, A549 cells were seeded into the wells of a microtiter tray (5000 cells/well in 100 μl F12K media) late in the afternoon on Day 1. The cells were grown overnight (37° C., 5% CO2). On Day 2, 50 μl nocodazole (1 μM in media) was added to each well, giving a final concentration of 333 nM. Cells were grown for an additional 18 hrs under the same conditions.
On Day 3, 50 μl aliguots of varying concentrations of test compound were added to the wells. […] The cells were then stained with a secondary antibody labeled with a fluorescent dye (secondary antibody donkey anti-mouse AlexFluor 488 (Invitrogen Molecular Probes; 1:2000) and DAPI (1:15,000 of 1 mg/ml stock) for 1 hr at room temperature, washed three times with DPBS (200 μl/well) and stored under DPBS (100 μl/well) at 4° C. until ready for analysis.
A Zeiss Axiovert S100 inverted fluorescent microscope with a Plan-NEOFLUAR 10× objective, a Hamamatsu Lightningcure 200 Mercury-Xenon light source and an Omega Optical XF57 quad filter was used for all data collection. […] Images were captured and analyzed in 12-bit format using segmentation and morphological routines contained in the Image Pro software package. […]

The subject of data set [3] is DU145 (prostate carcinoma). The data set can be described thus: In vitro antiproliferation assay, DU145. The class given is cell-based.
Data set [4] concerns H460 (large cell lung carcinoma). The conditions noted are these: read-out: In Vitro IC50. The procedure: Compounds 60r1, 60r2, 60r1.2HCl, 60a, 60b and 60a.HCl were tested against a variety of different types of tumor cells for their ability to inhibit proliferation using standard in vitro antiproliferation assays.
For data set [5], the system named is H1299 (non-small cell lung carcinoma). Briefly: In vitro antiproliferation assay, H1299. It counts as cell-based.
For another data set, the system named is A549 tumors. The conditions noted are these: A549, treatment model, 5 days on/2 days off, 10 mg/kg qd, p>0.05. The procedure:
(§1) Compound 60a.2HCl, was tested for its ability to shrink A549 and Colo205 tumors in a standard xenograft therapeutic model in SCID mice, and Colo205 and MiaPaCa tumors in a standard xenograph regression model in SCID mice. When palpable tumors appeared and were of a preselected volume (approx. 100 mm3 for treatment model; >300 mm3 for regression model), the mice were administered test compounds in the amounts and according to the dosing regimens specified in TABLE 3 (treatment protocol) and TABLE 4 (regression protocol), below.

The subject of a further data set is MiaPaCa tumors. Conditions: regression model, 10 mg/kg/day daily (3 cycles), oral or i.p. The procedure: as §1
For the next data set, the system named is Colo205 tumors. As for the experimental part:
as §1

A further data set has as its system A549 (lung carcinoma). The data set can be described thus: In vitro antiproliferation assay, A549. The class given is cell-based.
The test system of a further data set is H7299. The data set can be described thus: In vitro antiproliferation assay, H7299. The class given is cell-based.
The test system of data set [6] is L1210 (mouse lymphocytic leukemia). Briefly: In vitro antiproliferation assay, L1210. It counts as cell-based.
For data set [7], the system named is SK-OV-3 (ovarian adenocarcinoma). The data set can be described thus: In vitro antiproliferation assay, SK-OV-3. The class given is cell-based. The conditions noted are these: Homo sapiens, SKOV3.
Data set [8] is described as follows: Pharmacokinetics in monkeys, plasma concentration over time. It counts as in vivo. The procedure: Compound 60a was administered to monkeys intravenously (1 mg/kg in saline) and orally (5 mg/kg in saline) and the plasma concentrations monitored over time.
Data set [9] has as its system SU86.86 (pancreatic carcinoma). Briefly: In vitro antiproliferation assay, SU86.86. The class given is cell-based. The conditions noted are these: Homo sapiens, SU.86.86.
Data set [10] deals with K562 (bone marrow chronic myelogenous leukemia). The data set can be described thus: In vitro antiproliferation assay, K562. The class given is cell-based.
Data set [11] has as its system SW620 (colorectal adenocarcinoma). Briefly: In vitro antiproliferation assay, SW620. It counts as cell-based.
Data set [12] concerns PC3 (prostate adenocarcinoma). The data set can be described thus: In vitro antiproliferation assay, PC3. It counts as cell-based.
Data set [13] concerns ASPC-1 (pancreatic adenocarcinoma). Briefly: In vitro antiproliferation assay, ASPC-1. The class given is cell-based. The conditions noted are these: ASPC1.

Counter-ions that a name gives are not always drawn. Like-named read-outs stand apart in the source and are kept apart here. A value given as a limit tells only on which side of the number the result lay.

Broadly, the IC50 is the concentration at which inhibition is half-maximal. Take `Cc1cc(Nc2ncc(F)c(N[C@@H]3[C@H](C(N)=O)[C@H]4C=C[C@@H]3C4)n2)ccc1N1CCN(C)CC1` [Compound 60b, (1S,2S,3R,4R)—N-4-(3-Aminocarbonylbicyclo[2.2.1]hept-5-en-2-yl)-5-fluoro-N2-[3-methyl-(4-methylpiperazin-1-yl)phenyl]-2,4-pyrimidinediamine]: in data set [1], the “IC50's against tumor cell lines, tested as isolated stereoisomers” value is reported as “micromolar range”. In addition, the IC50 (in data set [2]; in the data set with U2OS (bone osteosarcoma); in data set [3]) was 20 to 1000 nM throughout. Also, the “IC50 of 60b relative to its enantiomer 60a” value at Aurora kinase-B is “approx. 350 times greater”.

Take `Cc1cc(Nc2ncc(F)c(N[C@H]3[C@@H](C(N)=O)[C@@H]4C=C[C@H]3C4)n2)ccc1N1CCN(C)CC1.Cl.Cl` [Compound 60a.2HCl, (1R,2R,3S,4S)—N-4-(3-aminocarbonylbicyclo[2.2.1]hept-5-ene-2-yl)-5-fluoro-N2-[3-methyl-4-(4-methylpiperazin-1-yl)phenyl]-2,4-pyrimidinediamine bis hydrogen chloride salt]: the IC50 in [4] was below 10 nM; in [5] it was 20 to 1000 nM; in [3], 20 to 1000 nM; in the data set on A549 (lung carcinoma), below 10 nM; in the data set with H7299, 20 to 1000 nM. The “reduction in mean tumor volume” value with A549 tumors was around 40%. Also, the tumor growth rate result in the data set with MiaPaCa tumors was “Significant reductions in tumor growth rate”; with Colo205 tumors (Colo205, regression model, 10 mg/kg/day oral daily (13 days)), “Significant reductions in tumor growth rate”. In the data set with Colo205 tumors (Colo205, treatment model, daily and pulsed dosing regimens, all dosage levels tested (2 and 10 mg/kg/day oral)), the “tumor growth rate compared to vehicle control” value is “significant (p<0.050) reductions in tumor growth rate”.

Take `Cc1cc(Nc2ncc(F)c(N[C@H]3[C@@H](C(N)=O)[C@@H]4C=C[C@H]3C4)n2)ccc1N1CCN(C)CC1` [Compound 60a, (1R,2R,3S,4S)—N-4-(3-aminocarbonylbicyclo[2.2.1]hept-5-ene-2-yl)-5-fluoro-N2-[3-methyl-4-(4-methylpiperazin-1-yl)phenyl]-2,4-pyrimidinediamine]: in data set [1], the “IC50's against tumor cell lines, tested as isolated stereoisomers” value is listed as “nanomolar range”. The “potency relative to the (1S,2S,3R,4R) enantiomer” value in data set [1] (in general, same cell lines) is around 1000 fold. Moreover, the 50% inhibitory concentration (IC50) in data set [6] (Mus musculus) lay in the range of 10 to 20 nM; in data set [2] (Homo sapiens), 20 to 1000 nM; in data set [7] it was 10 to 20 nM; in data set [9], 10 to 20 nM; in data set [10] (Homo sapiens) it was 20 to 1000 nM; in data set [3] (Homo sapiens, DU-145) it was 10 to 20 nM. For the same compound, the 50% inhibitory concentration (IC50) in data set [11] (Homo sapiens, SW-620) was 10 to 20 nM; with H7299, 10 to 20 nM. Also, the “time plasma concentration remained above the IC50 of 7 nM” value in data set [8] (intravenously, 1 mg/kg in saline) is 11 h. The “time plasma concentration was maintained above the IC50” value in data set [8] (orally, 5 mg/kg in saline) is listed as “over 20 hrs”.

Take `Cc1cc(Nc2ncc(F)c(NC3C4C=CC(C4)C3C(N)=O)n2)ccc1N1CCN(C)CC1` (racemic) [Compound 60r1.2HCl, 2-exo-3-exo racemic N4-(3-aminocarbonylbicyclo[2.2.1.]hept-5-ene-2-yl)-5-fluoro-N2-[3-methyl-4-(4-methylpiperazin-1-yl)phenyl]-2,4-pyrimidinediamine bis hydrogen chloride salt]: the IC50 (in data set [5]; with A549 (lung carcinoma) (listed as 60r1-2HCl); with H7299 (listed as 60r1-2HCl)) was 20 to 1000 nM in each case.

Turning to `Cc1cc(Nc2ncc(F)c(NC3C4C=CC(C4)C3C(N)=O)n2)ccc1N1CCN(C)CC1` (racemic) [Compound 60r1, 2-exo-3-exo racemic N4-(3-aminocarbonylbicyclo[2.2.1]hept-5-ene-2-yl)-5-fluoro-N2-[3-methyl-4-(4-methylpiperazin-1-yl)phenyl]-2,4-pyrimidinediamine], the IC50 in data set [6] lay within 20 to 1000 nM; in [2], 20 to 1000 nM; with U2OS (bone osteosarcoma) it was 10 to 20 nM; in data set [12] it was 10 to 20 nM; in [10] it was 20 to 1000 nM; in data set [3], 10 to 20 nM. Besides, the IC50 is 10 to 20 nM in [13], 20 to 1000 nM in data set [11], 10 to 20 nM with A549 (lung carcinoma) and 10 to 20 nM in the data set on H7299.
